pKi: −log10 of the molar value.

Assay type in all cases: biochemical
In one test the target is T1, JAK1 (Homo sapiens, UniProt P23458).
T1 construct: made in house; host or cells: SF9 insect cells (baculovirus)
Put plainly: JAK1 inhibition (Table 4). To be noted: read-out: JAK1 Ki.

The next test concerns the target T2, JAK2 (Homo sapiens, UniProt O60674).
T2 construct: made in house; host or cells: SF9 insect cells (baculovirus)
Put plainly: JAK2 inhibition (Table 4). To be noted: read-out: JAK2 Ki.

In another test the target is T3, JAK3 (Homo sapiens, UniProt P52333).
T3 construct: made in house; host or cells: SF9 insect cells (baculovirus)
Put plainly: JAK3 inhibition (Table 4). To be noted: read-out: JAK3 Ki.

The next test addresses T4, TYK2 (Homo sapiens, UniProt P29597).
T4 construct: made in house; host or cells: SF9 insect cells (baculovirus)
T4 sequence (P29597 873-1187): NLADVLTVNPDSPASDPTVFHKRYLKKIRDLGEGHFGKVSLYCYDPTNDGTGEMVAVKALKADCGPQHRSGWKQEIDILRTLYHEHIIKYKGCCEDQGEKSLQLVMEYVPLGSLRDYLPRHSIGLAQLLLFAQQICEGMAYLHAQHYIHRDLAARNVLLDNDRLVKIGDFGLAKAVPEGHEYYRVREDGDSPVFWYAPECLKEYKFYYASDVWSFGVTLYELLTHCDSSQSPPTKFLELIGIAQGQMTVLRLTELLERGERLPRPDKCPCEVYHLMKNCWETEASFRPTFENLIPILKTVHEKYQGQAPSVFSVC
Put plainly: TYK2 inhibition (Table 4).

T1 sequence (P23458 852-1154): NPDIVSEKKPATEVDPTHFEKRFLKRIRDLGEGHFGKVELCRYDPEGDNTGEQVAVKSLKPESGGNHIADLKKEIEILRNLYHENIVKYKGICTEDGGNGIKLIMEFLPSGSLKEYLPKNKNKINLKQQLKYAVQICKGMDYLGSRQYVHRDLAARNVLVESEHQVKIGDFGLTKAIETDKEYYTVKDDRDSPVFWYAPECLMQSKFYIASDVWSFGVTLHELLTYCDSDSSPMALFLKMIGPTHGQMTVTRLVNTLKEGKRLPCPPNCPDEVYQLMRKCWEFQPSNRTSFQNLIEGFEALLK
T3 sequence (P52333 783-1124): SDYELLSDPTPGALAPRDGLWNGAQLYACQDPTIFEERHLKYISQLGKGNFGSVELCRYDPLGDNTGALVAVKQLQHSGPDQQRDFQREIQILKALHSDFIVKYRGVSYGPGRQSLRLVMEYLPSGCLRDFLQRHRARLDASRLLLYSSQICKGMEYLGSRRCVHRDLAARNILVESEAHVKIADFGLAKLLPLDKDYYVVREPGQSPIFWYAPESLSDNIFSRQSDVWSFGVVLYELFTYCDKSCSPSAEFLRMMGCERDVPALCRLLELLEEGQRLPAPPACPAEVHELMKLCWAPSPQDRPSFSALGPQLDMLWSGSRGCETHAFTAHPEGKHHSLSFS
T2 sequence (O60674 812-1132): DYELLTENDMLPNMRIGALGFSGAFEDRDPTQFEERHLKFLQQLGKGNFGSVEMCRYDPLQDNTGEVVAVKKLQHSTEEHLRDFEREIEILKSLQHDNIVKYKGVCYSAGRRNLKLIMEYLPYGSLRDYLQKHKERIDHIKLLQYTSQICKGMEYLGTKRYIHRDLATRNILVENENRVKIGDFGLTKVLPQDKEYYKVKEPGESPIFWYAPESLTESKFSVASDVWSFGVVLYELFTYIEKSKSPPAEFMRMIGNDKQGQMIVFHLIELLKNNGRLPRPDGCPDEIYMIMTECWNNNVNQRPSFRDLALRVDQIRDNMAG

On to `c1cc2c(ncc3ncn([C@@H]4CCCN(Cc5cocn5)C4)c32)[nH]1` [Example 8, 1-((R)-1-Oxazol-4-ylmethyl-piperidin-3-yl)-1,6-dihydro-1,2,3,5,6-tetraaza-as-indacene], for which the pKi at JAK1 was 7.89; on JAK2 it was 7.36; on JAK3 it was 7.16; at TYK2 it was 6.87.
Consider `CS(=O)(=O)N1CCC[C@@H](n2cnc3cnc4[nH]ccc4c32)C1` [Example 9, 1-((R)-1-Methanesulfonyl-piperidin-3-yl)-1,6-dihydro-1,2,3,5,6-tetraaza-as-indacene], for which the pKi on JAK1 was 8.13; at JAK2, 8.19; at JAK3, 7.78; at TYK2, 7.45.
For `N#CCCN1CCC[C@@H](n2cnc3cnc4[nH]ccc4c32)C1` [Example 10, 3-[(R)-3-(6H-1,2,3,5,6-Tetraaza-as-indacen-1-yl)-piperidin-1-yl]-propionitrile] the same measures were 7.89, 7.66, 7.67 and 7.05.
Take `NC(=O)CN1CCC[C@@H](n2cnc3cnc4[nH]ccc4c32)C1` [Example 11, 2-[(R)-3-(6H-1,2,3,5,6-Tetraaza-as-indacen-1-yl)-piperidin-1-yl]acetamide]: the pKi was 7.76 on JAK1, 7.43 at JAK2, 7.02 at JAK3 and 6.75 on TYK2.
The like results for `c1ccc(N2CCC[C@@H](n3cnc4cnc5[nH]ccc5c43)C2)cc1` [Example 12, 1-((R)-1-Phenyl-piperidin-3-yl)-1,6-dihydro-1,2,3,5,6-tetraaza-as-indacene] were, in that order, 7.51, 7.45, 7.77 and 6.77.
The like results for `c1cc(N2CCC[C@@H](n3cnc4cnc5[nH]ccc5c43)C2)ncn1` [Example 14, 1-((R)-1-Pyrimidin-4-yl-piperidin-3-yl)-1,6-dihydro-1,2,3,5,6-tetraaza-as-indacene] were, in that order, 7.95, 7.86, 7.58 and 7.07.
For `OCCc1nc2cnc3[nH]ccc3c2n1[C@@H]1CCCN(Cc2ccccc2)C1` [Example 15, 2-[1-((R)-1-Benzyl-piperidin-3-yl)-1,6-dihydro-1,2,3,5,6-tetraaza-as-indacen-2-yl]ethanol] the same measures were 6.99, 7.06, 6.11 and 6.35.
Take `OCCc1nc2cnc3[nH]ccc3c2n1[C@@H]1CCCNC1` [Example 16, 2-((R)-1-Piperidin-3-yl-1,6-dihydro-1,2,3,5,6-tetraaza-as-indacen-2-yl)ethanol]: the pKi is 6.66 on JAK1, 6.17 at JAK2, 5.90 at JAK3 and 6.12 on TYK2.
As to `N#CCC(=O)N1CCC[C@@H](n2c(CCO)nc3cnc4[nH]ccc4c32)C1` [Example 17, 3-{(R)-3-[2-(2-Hydroxy-ethyl)-6H-1,2,3,5,6-tetraaza-as-indacen-1-yl]-piperidin-1-yl}-3-oxopropionitrile], the pKi was 8.39 on JAK1, 7.77 on JAK2, 7.10 at JAK3 and 7.53 on TYK2.
For `c1ccc(CN2CCC[C@@H](n3nnc4cnc5[nH]ccc5c43)C2)cc1` [Example 18, 1-((R)-1-Benzyl-piperidin-3-yl)-1,6-dihydro-1,2,3,5,6-pentaaza-as-indacene] the same measures were 7.61, 7.40, 6.49 and 6.56.
For `N#CCC(=O)N1CCC[C@@H](n2nnc3cnc4[nH]ccc4c32)C1` [Example 19, 3-Oxo-3-[(R)-3-(6H-1,2,3,5,6-pentaaza-as-indacen-1-yl)-piperidin-1-yl]propionitrile] the same measures were 8.83, 8.43, 7.61 and 7.69.
